# Assay results taken from patent US20240300945A1, “CLY SERIES COMPOUND, PREPARATION METHOD THEREFOR AND USE THEREOF IN PREPARATION OF DRUGS” (NANJING WELLBEST PHARMACEUTICAL CO., LTD, priority 2021, published 2024).
# Marks after values point to notes of the source that are not given here.
# Test system: mouse hair loss model
# Assay: Mouse hair loss (androgenic alopecia) model: hair length
# Format: in vivo, C57BL/6 mice
# Conditions: mouse AGA model; external 2% tincture twice a day
# Source text: (1) Preparation method of tincture of compounds CLY-1, CLY-2, CLY-3, CLY-4, CLY-8, CLY-11, CLY-19, CLY-36, and CLY-39: 60% ethanol was mixed with the above compounds to prepare a tincture of 2% concentration.
# (2) Positive treatment drug: 2% minoxidil tincture (produced by the Institute of Dermatology, Chinese Academy of Medical Sciences)
# The experimental mice were divided into the negative control group (external use of 60% ethanol), model group (external use of 60% ethanol), positive control group (external use of 2% minoxidil tincture), CLY-1 external treatment group (external use of 2% CLY-1 tincture), CLY-2 external treatment group (external use of 2% CLY-2 tincture), CLY-3 external treatment group (external use of 2% CLY-3 tincture), CLY-4 external treatment group (external use of 2% CLY-4 tincture), CLY-8 external treatment group (external use of 2% CLY-8 tincture) CLY-11 external treatment group (2% CLY-11 tincture), CLY-19 external treatment group (2% CLY-19 tincture), CLY-36 external treatment group (2% CLY-36 tincture), and CLY-39 external treatment group (2% CLY-39 tincture). There were 6 animals in each group, half male and half female. An area of 4 cm×5 cm from the back of experimental mice with hair removed was selected, and the hair removal area was painted yellow with 3% picric acid solution to determine the observation area of the hair removal experiment. In addition to the negative control group, mice in other groups were injected subcutaneously with testosterone propionate injection [8 ml/(kg·d)] at the back of the neck, once a day, for 60 consecutive days, to establish the model of androgenic alopecia (AGA). At the same time of modeling, the rats in the corresponding drug group were smeared with drugs on the observation area of the back at the rate of 1 ml/(piece·time), twice a day, with an interval of 2 hours. The normal control group and the model control group were smeared with the excipient (60% ethanol solution), 1 ml/(one time), twice a day, for 60 consecutive days.
# 10 hairs were extracted from the observation area on the back of each mouse every 15 days after administration, and the hair length was measured with a vernier caliper. After 60 days of administration, the skin of the experimental observation area was taken for routine tissue dehydration, paraffin embedding, HE staining, and light microscopy to observe the histopathological changes of mouse skin hair follicles and sebaceous glands. Semi-quantitative analysis was performed for each group. The grading criteria are as follows: the normal structure of dermal tissue cells, subcutaneous hair follicles, and sebaceous glands is marked as […]: no hyperplasia of dermal tissue is found, the lesions of hair follicles and sebaceous glands are limited, and no inflammation is found under the skin is marked as “+”: no obvious hyperplasia of dermal tissue is found, and the follicles are obviously cystic. No obvious hyperplasia of sebaceous glands is found, and no inflammation is found under the skin is marked as “+”: the dermal tissue has segmental hyperplasia, which is not obvious, A small number of hair follicles have cystic changes, and the sebaceous glands have mild hyperplasia and hypertrophy. There is no obvious inflammation under the skin, which is marked as “++”: the dermal tissue cells of the skin have different degrees of segmental hyperplasia, and some hair follicles have cystic changes, showing uneven size of hair follicles, and no cells around. The sebaceous glands have hyperplasia, and the nuclei in the proliferative glands are few. A few subcutaneous mild inflammatory hyperplasia is marked as “+++”.
Compound,15-day hair length,30-day hair length,45-day hair length,60-day hair length
"CN1CCC[C@@H](N(C(=O)c2ccc(-n3nnc4cccnc43)cc2)c2ncccc2Cl)C1 [CLY-1, (R)-4-(3H-[1,2,3]triazolo[4,5-b]pyridin-3-yl)-N-(3-chloropyridin-2-yl)-N-(1-methylpiperidin-3-yl)benzamide]",0.653* cm,0.851* cm,0.858* cm,0.951* cm
"CCN1CCC[C@@H](N(C(=O)c2ccc(-n3nnc4cccnc43)cc2)c2ncccc2Cl)C1 [CLY-2, (R)-4-(3H-[1,2,3]triazolo[4,5-b]pyridin-3-yl)-N-(3-chloropyridin-2-yl)-N-(1-ethylpiperidin-3-yl)benzamide]",0.676* cm,0.865* cm,0.869* cm,0.962* cm
CNC1CCCC(N(C(=O)c2ccc(-n3nnc4cccnc43)cc2)c2ncccc2Cl)C1 (stereo not shown) [CLY-3],0.646* cm,0.843* cm,0.847* cm,0.946* cm
O=C(c1ccc(-n2nnc3cccnc32)cc1)N(c1ncccc1Cl)C1CCCC(O)C1 (stereo not shown) [CLY-4],0.641* cm,0.837* cm,0.841* cm,0.939* cm
"O=C(c1ccc(-n2nnc3cccnc32)cc1)N(c1ncccc1Cl)[C@@H]1CCNC1 [CLY-8, (R)-4-(3H-[1,2,3]triazolo[4,5-b]pyridin-3-yl)-N-(3-chloropyridin-2-yl)-N-(pyrrolidin-3-yl)benzamide]",0.682 * cm,0.872* cm,0.886* cm,0.971* cm
NC1CCCC(N(C(=O)c2ccc(-n3nnc4cccnc43)cc2)c2ncccc2Cl)C1 (stereo not shown) [CLY-11],0.637* cm,0.831* cm,0.834* cm,0.932* cm
O=C(c1ccc(-c2ccccc2-c2nnn[nH]2)cc1)N(c1ncccc1Cl)[C@@H]1CCCNC1 [CLY-19],0.623* cm,0.826* cm,0.828* cm,0.915* cm
O=C(c1ccc(-c2ccccc2Cl)cc1)N(c1ncccc1Cl)[C@@H]1CCCNC1 [CLY-36],0.628* cm,0.824* cm,0.823* cm,0.919* cm
Nc1ccccc1-c1ccc(C(=O)N(c2ncccc2Cl)[C@@H]2CCCNC2)cc1 [CLY-39],0.665* cm,0.845* cm,0.867* cm,0.956* cm
"Nc1cc(N2CCCCC2)nc(N)[n+]1[O-] [Positive control group, minoxidil, reference compound]",0.591* cm,0.814* cm,0.825 cm,0.842* cm
